Assay: Aqueous solubility
Type: physicochemical
Settings: aqueous environments

solubility: < 0.04 µg/mL
SMILES: CCOC(=O)N1c2ccc(C(F)(F)F)cc2[C@@H](N(Cc2cc(C(F)(F)F)cc(C(F)(F)F)c2)C(=O)OC)C[C@H]1CC [torceptrapib, [2R,4S]-4-[(3,5-bis-trifluoromethyl-benzyl)-methoxycarbonyl-amino]-2-ethyl-6-trifluoromethyl-3,4-dihydro-2H-quinoline-1-carboxylic acid ethyl ester]

Source: patent US7071210B2, “CETP inhibitors in combination with antihypertensive agents and uses thereof” (Pfizer Inc., priority 2002, dated 2006)
